Key:
[1] = test system: cynomolgus monkeys; test: Evaluation of wake-promoting effects in cynomolgus monkeys (EEG/EMG/EOG); type: in vivo, cynomolgus monkey; settings: Macaca fascicularis, sc, at ZT12, time spent in wakefulness for 4 h after administration, male cynomolgus monkeys, read-out: Wakefulness time (% of vehicle treatment) (Mean, n = 1-2)
[2] = biological target: T1, human orexin type 2 receptor (Homo sapiens, UniProt O43614); test: Measurement of orexin type 2 receptor agonist activity (Fluo-4 calcium fluorescence, FDSS); type: cell-based; settings: 3 μM test compound; CHO cells expressing human OX2 receptor; DMSO = 0%, orexin A (human) = 100%
T1 construct: expressed in transfected cells
T1 sequence (O43614 1-444): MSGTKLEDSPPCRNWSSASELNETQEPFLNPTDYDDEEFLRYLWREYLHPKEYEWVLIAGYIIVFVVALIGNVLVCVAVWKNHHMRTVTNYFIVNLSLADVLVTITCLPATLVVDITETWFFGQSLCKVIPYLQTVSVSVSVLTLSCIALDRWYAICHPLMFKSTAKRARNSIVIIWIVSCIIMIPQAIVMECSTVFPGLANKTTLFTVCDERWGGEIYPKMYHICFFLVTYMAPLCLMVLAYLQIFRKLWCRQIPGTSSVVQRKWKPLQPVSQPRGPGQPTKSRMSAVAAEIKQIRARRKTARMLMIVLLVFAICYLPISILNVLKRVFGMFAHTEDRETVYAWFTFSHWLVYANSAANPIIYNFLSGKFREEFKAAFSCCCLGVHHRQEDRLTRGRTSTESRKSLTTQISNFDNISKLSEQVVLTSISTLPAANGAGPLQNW
Text: To obtain a cell clone stably expressing human orexin type 2 receptor, human orexin type 2 receptor cDNA was inserted into pcDNA3.1(+) plasmid vector (Invitrogen), and a plasmid DNA for expression of human orexin type 2 receptor (pcDNA3.1(+)/hOX2R) was cloned. The plasmid DNA was introduced into CHO-dhfr cell by an electroporation method, and human orexin type 2 receptor expressing clone cells were obtained by limiting dilution method by using G418 drug resistance as a selection marker.
CHO cells forcibly expressing human OX2 receptor were seeded in each well of 384 well black transparent bottom plate (BD Falcon) at 7,500 cells/well, and cultured for one day in a 5% CO2 incubator at 37° C. […] A test compound prepared by diluting with assay buffer B (HBSS, 20 mM HEPES, 0.1% BSA) was added at 10 μL/well, and the fluorescence value was measured by FDSSUCELL (Hamamatsu Photonics K.K.) every one sec for 1 min, and thereafter every two sec for 1 min 40 sec. The activity (%) of the test compound was calculated assuming that variation in the fluorescence value when DMSO was added instead of the test compound was 0%, and variation in the fluorescence value when orexin A (human) (PEPTIDE INSTITUTE, INC.) was added at the final concentration of 10 nM was 100%.

Row | Compound | response vs control in vivo at 1 mg/kg [1] [%] | OX2R agonist activity (3 μM, %) [2] [%]
1 | CCS(=O)(=O)N[C@H]1CCN(C(=O)C(C)(C)O)[C@H]1Cc1cccc(-c2cc(F)cc(F)c2)c1F [Example 484, N-((2S,3S)-1-(2-hydroxy-2-methylpropanoyl)-2-((2,3′,5′-trifluorobiphenyl-3-yl)methyl)pyrrolidin-3-yl)ethanesulfonamide] | 492 | 
2 | CC(C)(O)C(=O)N1CC[C@H](NS(C)(=O)=O)[C@@H]1Cc1cccc(-c2cc(F)cc(F)c2)c1F [Example 483, N-((2S,3S)-1-(2-hydroxy-2-methylpropanoyl)-2-((2,3′,5′-trifluorobiphenyl-3-yl)methyl)pyrrolidin-3-yl)methanesulfonamide] | 359 | 
3 | CCS(=O)(=O)N[C@H]1CCN(C(=O)C(C)(C)O)[C@H]1Cc1cccc(-c2cccc(F)c2)c1F [Example 482, N-((2S,3S)-2-((2,3′-difluorobiphenyl-3-yl)methyl)-1-(2-hydroxy-2-methylpropanoyl)pyrrolidin-3-yl)ethanesulfonamide] | 281 | 
4 | CCNC(=O)N1CCC[C@H](NS(C)(=O)=O)[C@@H]1Cc1cccc(O[Si](C(C)C)(C(C)C)C(C)C)c1 (relative stereo) [Example 17, cis-N-ethyl-3-((methylsulfonyl)amino)-2-(3-((triisopropylsilyl)oxy)benzyl)piperidine-1-carboxamide] |  | 29

From patent publication US11440883B2, “Heterocyclic compound and use thereof” (Takeda Pharmaceutical Company Limited, priority 2017, dated 2022)
